In the supplement of paper PMC8967900:

Tests used:
Assay in all cases: selective drug sensitivity score (sDSS, relative to normal bone marrow) (sDSS (score)); higher = more potent and effective on the cell line relative to normal bone marrow cells
Conditions in all cases: 72 h
697 = tested on: 697
ALL-PO = tested on: ALL-PO
CCRF-HSB2 = tested on: CCRF-HSB2
COG-LL-317 = tested on: COG-LL-317
COG-LL-319h = tested on: COG-LL-319h
COG-LL-355h = tested on: COG-LL-355h
HAL-01 = tested on: HAL-01
JURKAT = tested on: JURKAT
KASUMI-9 = tested on: KASUMI-9
KOPN-8 = tested on: KOPN-8
LC4-1 = tested on: LC4-1
MHH-CALL-4 = tested on: MHH-CALL-4
MN-60 = tested on: MN-60
MOLT-16 = tested on: MOLT-16
P30-OHKUBO = tested on: P30-OHKUBO
PEER = tested on: PEER
SEM cells = tested on: SEM cells
SUP-B15 = tested on: SUP-B15
TANOUE = tested on: TANOUE
TMD5 = tested on: TMD5
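Also: ALL cell lines in 384-well plates, five doses spanning 10,000-fold, each plate scaled between vehicle and 100 µmol/L benzalkonium chloride controls, sDSS an adapted area-under-curve metric.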

Structure (SMILES)	selective drug sensitivity score 697	selective drug sensitivity score (ALL-PO)	selective drug sensitivity score (CCRF-HSB2)	selective drug sensitivity score (COG-LL-317)	selective drug sensitivity score (COG-LL-319h)	selective drug sensitivity score (COG-LL-355h)	selective drug sensitivity score (HAL-01)	selective drug sensitivity score (JURKAT)	selective drug sensitivity score (KASUMI-9)	selective drug sensitivity score (KOPN-8)	selective drug sensitivity score (LC4-1)	selective drug sensitivity score (MHH-CALL-4)	selective drug sensitivity score (MN-60)	selective drug sensitivity score (MOLT-16)	selective drug sensitivity score (P30-OHKUBO)	selective drug sensitivity score (PEER)	selective drug sensitivity score (SEM cells)	selective drug sensitivity score (SUP-B15)	selective drug sensitivity score (TANOUE)	selective drug sensitivity score (TMD5)
Cc1ccc(NC(=O)c2ccc(CN3CCN(C)CC3)cc2)cc1Nc1nc(-c2cccnc2)cs1 [Masitinib] (top concentration 10000 nM)	1.32	-1.28	6.02	3.32	-3.88	-1.78	0.72	0.92	1.22	-1.58	-2.18	-4.38	-1.58	3.42	1.22	6.62	0.22	7.52	-4.38	1.82
CCN(CC)CCCC(C)Nc1c2ccc(Cl)cc2nc2ccc(OC)cc12 (stereo not given) [Mepacrine] (top concentration 50000 nM)	-3.7	0.2	-4.8	-0.5	-2.9	-3.3	-3.5	-7.7	-3.6	0.1	-4	-8.4	-5.7	-0.8	-0.3	-5.9	-0.1	-1.1	-10.8	-7.6
COc1ccc(-c2ccc3ncc4c(c3c2)n(-c2ccc(N3CCNCC3)c(C(F)(F)F)c2)c(=O)n4C)cn1 [NVP-BGT226] (top concentration 1000 nM)	14.2	6.72	5.82	0.72	0.72	6.42	2.22	2.82	8.42	9.52	2.22	2.32	5.72	12.2	12.2	3.42	6.82	10.2	-3.58	-5.58
COc1nc(N)nc2c1ncn2[C@@H]1O[C@H](CO)[C@@H](O)[C@@H]1O [Nelarabine] (top concentration 10000 nM)	1.58	0.08	1.88	4.58	4.78	-6.22	-5.82	-0.12	1.98	-7.82	-7.22	-3.12	-10.2	-7.22	-1.82	-5.52	-10.2	5.78	-10.2	-10.2
Cc1cn(-c2cc(NC(=O)c3ccc(C)c(Nc4nccc(-c5cccnc5)n4)c3)cc(C(F)(F)F)c2)cn1 [Nilotinib] (top concentration 10000 nM)	1.3	4.6	12.9	0	8.2	0.6	3.3	1.1	4.6	9.7	9.1	2	0	2.1	2.5	18.1	4.9	31.6	0	21
NC(=O)c1cccc2cn(-c3ccc(C4CCCNC4)cc3)nc12 (stereo not given) [Niraparib] (top concentration 10000 nM)	12.9	6.08	5.78	7.88	14.2	4.68	3.18	0.38	5.78	16.1	3.38	4.58	-3.02	4.78	5.98	-1.02	2.98	17.2	-3.32	-1.72
COc1ccc(C[C@H](NC(=O)[C@H](C)NC(=O)CN2CCOCC2)C(=O)N[C@@H](Cc2ccccc2)C(=O)[C@@]2(C)CO2)cc1 [ONX-0914] (top concentration 10000 nM)	-5	-3.9	9.9	4.7	-0.8	8.7	-9.3	-4.4	-4.1	1.5	-1.2	2.9	-2.9	2.5	-1.8	7.7	7.2	11.5	-4.2	0
CC(=O)c1cnc2ccc(-c3cc(Cl)c(O)c(Cl)c3)nc2c1N[C@H]1CC[C@H](CN(C)C)CC1 [OTS167] (top concentration 1000 nM)	5.48	-2.12	13.2	3.58	6.58	6.18	1.88	-3.52	3.58	5.68	-3.42	2.58	-1.82	2.78	0.98	1.78	0.58	2.98	-12.1	-7.22
COC(=O)C[C@](O)(CCCC(C)(C)O)C(=O)O[C@@H]1C(OC)=C[C@]23CCCN2CCc2cc4c(cc2[C@H]13)OCO4 [Omacetaxine] (top concentration 10000 nM)	10.5	-3.38	4.92	7.12	4.12	4.62	1.32	-0.48	1.12	5.02	1.52	3.52	-3.88	6.32	3.12	-1.88	4.22	7.82	-14.8	-2.08
